Reference: patent publication US10940206B2, “Ophthalmic composition comprising lipoic acid and a mucomimetic polymer” (OPHTALMIS MONACO, priority 2015, dated 2021)

Key:
[1] = Osmoprotective activity: cell viability (XTT assay) under hyperosmolar stress; format: cell-based, human; conditions: human, 0 h (pre-osmotic stress, after 17 h preincubation)
Procedure: (§1) A study was carried out to determine the osmoprotective capacity of sodium lipoate (A) during hyperosmolar stress on human conjunctival (WKD) and corneal (HCE) cells. The osmoprotective activity of A, then A with B and C, was evaluated by measuring cell viability in particular. To that end, cells were preincubated for 17 h with the test substance(s). Next, the medium was removed and the cells were subjected to hyperosmolar stress by addition of sodium chloride (100 mM NaCl) to the culture medium (M199 for the WKD cells and KSFM for the HCE cells). Cellgrowth control cells were contacted with isotonic medium. Cell viability was analyzed preosmotic stress (0 h) in order to measure the effect of the molecules remaining in contact with the cells during the 17 h of incubation, then at 4 h, 8 h and 24 h post-induction of osmotic stress. The cell viability measurement was carried out via an XTT assay. Various concentrations of A were tested for the “molecule alone” tests: 0.0005%, 0.001%, 0.005%, 0.01% and 0.05% w/v. For the molecule mixture tests, the following concentrations were tested: for A: 0.001%, 0.005%, and 0.01% w/v; for B: 0.25% w/v; and for C: 0.5% and 1% w/v. To ensure the validity and the significance of the data, the results obtained were analyzed statistically. The results presented below result from the mean of 3 independent repetitions, carried out on different days.

[2] = tested on: human conjunctival (WKD) and corneal (HCE) cells; assay: as above; format: cell-based; conditions: Homo sapiens, HCE; for viability at 0.0005 % strength: 0.0005% w/v; for viability at 0.001 % strength: 0.001% w/v; for viability at 0.005 % strength: 0.005% w/v; for viability at 0.01 % strength: 0.01% w/v; for viability at 0.05 % strength: 0.05% w/v
Procedure: as §1

[3] = 4 h post-induction of osmotic stress (100 mM NaCl)
[4] = 8 h post-induction of osmotic stress (100 mM NaCl)
[5] = 24 h post-induction of osmotic stress (100 mM NaCl)

SMILES: O=C(O)CCCCC1CCSS1 (centres unmarked) [sodium lipoate, 5-(1,2dithiolan-3-yl)pentanoic acid]
- viability at 17 h, 0.0005 % w/v ([1]; 0.0005% w/v): 99.9%
- viability at 17 h, 0.001 % w/v ([1]; 0.001% w/v): 98.5%
- viability at 17 h, 0.005 % w/v ([1]; 0.005% w/v): 103%
- viability at 17 h, 0.01 % w/v ([1]; 0.01% w/v): 98.1%
- viability at 17 h, 0.05 % w/v ([1]; 0.05% w/v): 56.3%
- viability at 0.0005 % strength [2, 3]: 62.7%
- viability at 0.0005 % strength [2, 4]: 38.5%
- viability at 0.0005 % strength [2, 5]: 18.8%
- viability at 0.001 % strength [2, 3]: 69.6%
- viability at 0.001 % strength [2, 4]: 42.4%
- viability at 0.001 % strength [2, 5]: 18.5%
- viability at 0.005 % strength [2, 3]: 109%
- viability at 0.005 % strength [2, 4]: 76.1%
- viability at 0.005 % strength [2, 5]: 12.6%
- viability at 0.01 % strength [2, 3]: 120%
- viability at 0.01 % strength [2, 4]: 82.9%
- viability at 0.01 % strength [2, 5]: 8.9%
- viability at 0.05 % strength [2, 3]: 46%
- viability at 0.05 % strength [2, 4]: 27.8%
- viability at 0.05 % strength [2, 5]: 2.7%
